Where “and” joins values, the source holds several entries; their conditions need not be identical. Equal values may be shown once.
Assays:
Sprague-Dawley rats [1] = test: Observation of the site of the subcutaneous injection; format: in vivo, rat; details: rat, in vivo, sc
Description: (§1) In Vivo Anti-inflammatory Activity and Gastric Toxicity. Groups of four rats were used for all studies. All doses were calculated as equivalent concentrations of Indo. […] For subcutaneous and intramuscular administration, rats were injected with 125-200 μL volumes of the test compositions (IndoH or [Cu2(Indo)4(OH2)2] in MCT oil). The control cohort was injected with equivalent volumes of neat MCT. Subcutaneous injections were made in the lower dorsal surface and intramuscular injections were made in the right hind thigh muscle. Inflammation was induced 1 h after dosing by injection of the formulation by an injection of carrageenan (0.1 mL, 1% w/v in isotonic saline) into the plantar region of the hind paw.

Sprague-Dawley rats [2] = test: Inhibition of carrageenan-induced paw edema, oral administration; format: in vivo, rat; details: for percent inhibition in rat hind-paw diameter change, 3-hr / percent inhibition in rat hind-paw diameter change, 5-hr: oral, IndoH 10 mg kg^−1, complex 11 mg kg^−1, mean(sem); for percent inhibition in rat hind-paw diameter change, 3-hr: 3 h post carrageenan; for percent inhibition in rat hind-paw diameter change, 5-hr: 5 h post carrageenan
Description: Inhibition of Carrageenan-Induced Paw Edema: Rats were orally administered (non-anaesthetized) the Test Samples or Test Compositions via oral gavage. The control cohort was dosed solely with CMC (2%) solution. […] Exp. Ther. 1965, 150, 165-171). The thickness of the paw was measured at the ventral dorsal footpad using digital calipers prior to dosing and at 3 and 5 h after carrageenan injection. The change in the measured parameter (ΔP) for thickness of paw (Δmm) at n=3- and 5-hours after carrageenan injection is given by: ΔP=Pt=n-Pt=0 (I) The percent inhibition (% inhibition) at 3- or 5-hours in the measured parameter (P) due to the treatment is given as the difference between the % increase in the value of P in the control group and the treatment group at n=3- or 5-hours, with the % increase in the value of P given by: […]

Sprague-Dawley rats [3] = test: Anti-inflammatory activity (rat paw oedema) of topical creams; format: in vivo; details: topical emulsifying cream
Description: All rat experiments were performed as outlined in Example 7, except for the following changes. In Vivo Anti-inflammatory Activity and Gastric Toxicity. For topical administration, rats were treated with test compositions containing [Cu2(Indo)4(OH2)2] (“CuIndo”), [Zn(Indo)2(OH2)2] (“ZnIndo”), IndoH, or an equivalent Indo and Cu dose of a physical mixture of [Cu2(OAc)4(OH2)2] and IndoH thoroughly mixed in an emulsifying cream (see below). An amount of 0.2 g of the composition was applied to the right hind paw of each animal and gently massaged in for 1 minute at three-hourly intervals. Inflammation was induced at the final topical application with an injection of carrageenan (0.1 mL, 1% w/v in isotonic saline) into the plantar region of the hind paw. The composition for topical application was a composition comprising 0.5-2% w/w of Indo delivered as [Cu2(Indo)4(OH2)2] (“CuIndo”), [Zn(Indo)2(OH2)2] (“ZuIndo”), IndoH or an equivalent Indo and Cu dose of a physical mixture of [Cu2(OAc)4(OH2)2] and IndoH in an emulsifying cream, the emulsifying cream consisting of: […]

Sprague-Dawley rats [4] = test: Anti-inflammatory activity (rat paw oedema) after subcutaneous or intramuscular injection; format: in vivo
Description: as §1
(§2) Paw volume was measured prior to dosing and at 3 h after carrageenan injection by immersing the left hind paw (to the lateral malleus) into a vessel filled with water as described in Example 5. Immediately after paw volume measurements, 24 h-fasted animals were euthanised and the stomach was excised and opened by incision along the greater curvature.

Sprague-Dawley rats [5] = test: Gastric toxicity after subcutaneous or intramuscular injection; details: rat, in vivo, 4 h
Description: as §1, §2

Sprague-Dawley rats [6] = test: Small intestinal toxicity of topical creams; details: rat, in vivo
Description: In Vivo Small Intestinal Toxicity.
All rat experiments were performed as outlined in Example 7, except for the following changes.
In Vivo Anti-inflammatory Activity and Gastric Toxicity. For topical administration, rats were treated with test compositions containing [Cu2(Indo)4(OH2)2] (“CuIndo”), [Zn(Indo)2(OH2)2] (“ZnIndo”), IndoH, or an equivalent Indo and Cu dose of a physical mixture of [Cu2(OAc)4(OH2)2] and IndoH thoroughly mixed in an emulsifying cream (see below). An amount of 0.2 g of the composition was applied to the right hind paw of each animal and gently massaged in for 1 minute at three-hourly intervals. Inflammation was induced at the final topical application with an injection of carrageenan (0.1 mL, 1% w/v in isotonic saline) into the plantar region of the hind paw.

Sprague-Dawley rats [7] = test: Small intestine ulceration after oral administration; format: in vivo, rat; details: rats fed, oral gavage, 24 h after dosing, IndoH 10 mg kg^−1, complexes 11 mg kg^−1, mean ± sem
Description: The rats were orally administered (non-anaesthetized) the Test Samples or Test Compositions via oral gavage. The controls were dosed with CMC (2%) solution.
(§3) The total volume of the MCT or carbopol paste compositions administered per dose in the assessment of gastrointestinal ulceration was no more than 0.5 g.

Sprague-Dawley rats [8] = test: Acute gastric ulceration after oral administration; format: in vivo, rat; details: for gastric ulceration: 10 mg kg^−1 dose of Indo
Description: Gastrointestinal Ulceration: To assess gastric damage, rats (n=4 per group) were fasted overnight with free access to water prior to the oral administration (non-anaesthetized) of the Test Samples or Test Compositions via oral gavage. The controls were dosed with CMC (2%) solution. Three hours after dosing, the rats were euthanised and the stomach was excised and opened by incision along the greater curvature. The stomach was rinsed, submerged in 10% formaldehyde for 1 h and examined to determine the extent of macroscopic gastric damage.
as §3
In order to illustrate the adverse effects of decomposition of the copper complex in the formulation, the gastric toxicity of IndoH, Cu-acetate, a physical mixture of Cu-acetate and IndoH and [Cu2(Indo)4(DMF)2] were tested at equivalent doses of Indo (10 mg kg^−1) and/or Cu in the MCT paste or a 2% (w/v) aqueous solution of carboxymethylcellulose (CMC). The MCT paste formulations were prepared as described in Example 3 but using IndoH, Cu-acetate, a physical mixture of Cu-acetate and IndoH, or [Cu2(Indo)4(DMF)2] instead of [Cu2(Indo)4(OH2)2]. The gastric toxicity was tested as described above. The results of these experiments are illustrated in FIG. 3.
In further experiments designed to test the toxicity of solutions of the Cu complex, the [Cu2(Indo)4(DMF)2] complex was dissolved in DMF and gastric toxicities were assessed. […] Similar results would be expected using other complexes, including [Cu2(Indo)4(OH2)2], in a non-colloidal solution.

## COc1ccc2c(c1)c(CC(=O)O)c(C)n2C(=O)c1ccc(Cl)cc1 [IndoH, 1-(4-chlorobenzoyl)-5-methoxy-2-methyl-1H-indole-3-acetic acid]
Sprague-Dawley rats [1]
  adverse effect at the site of the injection: None of the rats exhibited soreness, swelling, redness or any other adverse effect
Sprague-Dawley rats [2]; delivered in CMC
  ED50: 2.8 ± 1.7 mg/kg
Sprague-Dawley rats [2]; delivered in MCT paste
  ED50: 1 mg/kg
Sprague-Dawley rats [2]
  percent inhibition in rat hind-paw diameter change, 3-hr: 21(8) %
  percent inhibition in rat hind-paw diameter change, 5-hr: 25(6) %
Sprague-Dawley rats [2]; listed as Indomethacin
  percent inhibition in rat hind-paw diameter change, 3-hr: 21(8)%
  percent inhibition in rat hind-paw diameter change, 5-hr: 25(6)%
Sprague-Dawley rats [3]; conc. 0.5 % equiv of Indo
  Efficacy (% inhib): 18.6 % inhib
Sprague-Dawley rats [3]; conc. 0.75 % equiv of Indo
  Efficacy (% inhib): 60.8 % inhib
Sprague-Dawley rats [3]; conc. 1 % equiv of Indo
  Efficacy (% inhib): 35 % inhib
Sprague-Dawley rats [3]; conc. 2 % equiv of Indo
  Efficacy (% inhib): 42 % inhib
Sprague-Dawley rats [4]; intramuscular, fasting rats, 5 mg/kg equivalent dose of Indo
  Percent inhibition: 38.7%
Sprague-Dawley rats [4]; intramuscular, fasting rats, 10 mg/kg equivalent dose of Indo
  Percent inhibition: 49.4%
Sprague-Dawley rats [4]; subcutaneous, 7.5 mg/kg of Indo, non-fasting
  Percent inhibition: 34%
Sprague-Dawley rats [5]; 5 mg/kg
  Gastric ulcers (mm^2): 1, 0, 1, 2 mm^2
Sprague-Dawley rats [5]; 10 mg/kg
  Gastric ulcers (mm^2): 12, 3, 8, 20 mm^2
Sprague-Dawley rats [6]
  intestinal bleeding: ^bOvert intestinal bleeding.
Sprague-Dawley rats [7]; listed as Sample I
  Small intestine ulceration (mm^2): 177.0±4.4 mm^2

## COc1ccc2c(c1)c(CC(=O)[O-])c(C)n2C(=O)c1ccc(Cl)cc1.COc1ccc2c(c1)c(CC(=O)[O-])c(C)n2C(=O)c1ccc(Cl)cc1.O.O.[Zn+2] [ZnIndo, [Zn(Indo)2(OH2)2]]
Sprague-Dawley rats [3]; conc. 0.5 % equiv of Indo
  Efficacy (% inhib): 29 % inhib
Sprague-Dawley rats [3]; conc. 1 % equiv of Indo
  Efficacy (% inhib): 41 % inhib

## CN(C)C=O.CN(C)C=O.COc1ccc2c(c1)c(CC(=O)[O-])c(C)n2C(=O)c1ccc(Cl)cc1.COc1ccc2c(c1)c(CC(=O)[O-])c(C)n2C(=O)c1ccc(Cl)cc1.COc1ccc2c(c1)c(CC(=O)[O-])c(C)n2C(=O)c1ccc(Cl)cc1.COc1ccc2c(c1)c(CC(=O)[O-])c(C)n2C(=O)c1ccc(Cl)cc1.[Cu+2].[Cu+2] [[Cu2(Indo)4(DMF)2], bis(N,N-dimethylformamide)tetrakis-μ-(O,O′-Indo)dicopper(II)]
Sprague-Dawley rats [8]; complex dissolved in DMF alone
  gastric ulceration: > 200 mm^2
Sprague-Dawley rats [8]; complex in DMF containing 2% CMC
  gastric ulceration: 100 mm^2
Sprague-Dawley rats [8]; oral, equivalent doses of Indo (10 mg kg^−1) and/or Cu, FIG. 3
  gastric damage in 0.5 mL MCT paste compared with 0.5 mL of 2% (w/v) CMC solution: less GI toxicity for the MCT formulation compared to the CMC formulation
Sprague-Dawley rats [8]; oral, equivalent doses of Indo (10 mg kg^−1) and/or Cu, [Cu2(Indo)4(DMF)2] in MCT paste, Cu-acetate in CMC solution or MCT paste, FIG. 3
  gastric ulcerations compared to the control: no significant gastric ulcerations
Sprague-Dawley rats [8]; rats fasted overnight, oral gavage, 3 h after dosing, IndoH 10 mg kg^−1, complexes 11 mg kg^−1, mean ± sem, listed as Sample M
  Gastric ulceration (mm^2): 49±7 mm^2 and 49.0±6.7 mm^2
Sprague-Dawley rats [7]; listed as Sample M
  Small intestine ulceration (mm^2): 8.7±2.9 mm^2
